Here are results for 32 compounds from patent US20220177477A1 (Central China Normal University, priority 2019, published 2022).

Structures are written as SMILES.

Broadly, the IC50 is the concentration that inhibits the measured activity by half.

For one assay, the target named is T1, TRKA (Homo sapiens, UniProt P04629).
T1 construct: purchased Carna Biosciences 08-186
T1 sequence (P04629 33-796): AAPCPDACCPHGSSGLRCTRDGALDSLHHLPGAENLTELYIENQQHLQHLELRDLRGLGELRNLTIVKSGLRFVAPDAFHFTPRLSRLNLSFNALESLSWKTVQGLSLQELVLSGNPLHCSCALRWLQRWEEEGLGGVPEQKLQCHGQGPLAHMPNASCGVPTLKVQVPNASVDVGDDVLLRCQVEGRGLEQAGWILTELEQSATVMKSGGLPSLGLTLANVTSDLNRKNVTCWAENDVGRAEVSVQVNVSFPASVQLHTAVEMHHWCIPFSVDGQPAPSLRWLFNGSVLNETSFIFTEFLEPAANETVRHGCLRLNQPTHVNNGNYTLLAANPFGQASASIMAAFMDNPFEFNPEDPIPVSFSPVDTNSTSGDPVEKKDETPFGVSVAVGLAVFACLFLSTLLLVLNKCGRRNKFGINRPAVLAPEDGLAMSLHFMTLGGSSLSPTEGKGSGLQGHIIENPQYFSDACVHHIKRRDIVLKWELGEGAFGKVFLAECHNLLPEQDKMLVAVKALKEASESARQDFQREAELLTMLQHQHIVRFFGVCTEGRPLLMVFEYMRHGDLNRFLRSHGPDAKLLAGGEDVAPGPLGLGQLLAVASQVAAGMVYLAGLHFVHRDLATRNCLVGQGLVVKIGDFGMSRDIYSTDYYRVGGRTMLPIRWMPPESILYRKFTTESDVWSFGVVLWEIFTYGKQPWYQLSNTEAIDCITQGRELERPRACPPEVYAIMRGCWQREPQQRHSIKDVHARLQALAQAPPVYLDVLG
The assay can be described thus: In vitro biochemical HTRF KinEASE kinase inhibition, TRKA.
Settings: not given
A general note: TR-FRET usually uses a lanthanide donor and a delayed reading to cut background.
The compound `CC(Nc1ccn2ncc(-c3cn[nH]c3)c2n1)c1cc(F)ccc1OCC#N` (centres unmarked) [Compound b11-36, 2-(2-(1-((3-(1H-pyrazol-4-yl)pyrazolo [1,5-a]pyrimidin-5-yl)amino)ethyl)-4-fluorophenoxy) acetonitrile] registered an IC50 of 88.6 nM.

The assay is the same for the next values; noted with them: wild-type kinase, final ATP 3.727 μmol/L; read-out: TRKA IC50.
As to `CC(Nc1ccn2ncc(-c3cnn(CC(F)F)c3)c2n1)c1cc(F)ccc1OCC(F)F` (centres unmarked) [Compound 6, N-(1-(2-(2,2-difluoroethoxy)-5-fluorophenyl)ethyl)-3-(1-(2,2-difluoroethyl)-1H-pyrazol-4-yl) pyrazolo [1,5-a] pyrimidin-5-amine], the IC50 came out at 12.4 nM.

With `CC(Nc1ccn2ncc(-c3cnn(C4CCCCC4O)c3)c2n1)c1cc(F)ccc1OCC(F)F` (centres unmarked) [Compound 9, 2-(4-(5-((1-(2-(2,2-difluoroethoxy)-5-fluorophenyl)ethyl)amino)pyrazolo [1,5-a]pyrimidin-3-yl)-1H-pyrazol-1-yl) cyclohexan-1-ol], the IC50 came to 11.4 nM.

Take `CC(Nc1ccn2ncc(-c3cnn(C4CCOCC4)c3)c2n1)c1cc(F)ccc1OCC(F)F` (centres unmarked) [Compound 11, N-(1-(2-(2,2-difluoroethoxy)-5-fluorophenyl)ethyl)-3-(1-(tetrahydro-2H-pyran-4-yl)-1H-pyrazol-4-yl) pyrazolo [1,5-a] pyrimidin-5-amine]: the IC50 amounted to 11.8 nM.

Take `CC(Nc1ccn2ncc(-c3cnn(S(C)(=O)=O)c3)c2n1)c1cc(F)ccc1OCC(F)F` (centres unmarked) [Compound 13, N-(1-(2-(2,2-difluoroethoxy)-5-fluorophenyl)ethyl)-3-(1-(methylsulfonyl)-1H-pyrazol-4-yl) pyrazolo [1,5-a] pyrimidin-5-amine]: the IC50 was determined as 10.4 nM.

With `CC(Nc1ccn2ncc(-c3cnn(C)c3)c2n1)c1cc(F)cc(F)c1OCC(F)F` (centres unmarked) [Compound 15, N-(1-(2-(2,2-difluoroethoxy)-3,5-difluorophenyl)ethyl)-3-(1-methyl-1H-pyrazol-4-yl) pyrazolo [1,5-a] pyrimidin-5-amine], the concentration for half-maximal inhibition (IC50) turned out to be 11.7 nM.

Consider `CC(Nc1ccn2ncc(-c3cnn(C)c3)c2n1)c1ccccc1OCC(F)F` (centres unmarked) [Compound 17, N-(1-(2-(2,2-difluoroethoxy)phenyl)ethyl)-3-(1-methyl-1H-pyrazol-4-yl) pyrazolo [1,5-a] pyrimidin-5-amine], for which the IC50 is 18.3 nM.

Consider `CC(Nc1ccn2ncc(-c3cnn(C)c3)c2n1)c1cc(F)ccc1O` (centres unmarked) [Compound a1-2, 4-fluoro-2-(1-((3-(1-methyl-1H-pyrazol-4-yl)pyrazolo [1,5-a]pyrimidin-5-yl)amino)ethyl) phenol], for which the IC50 amounted to 9 nM.

As for `CC(Nc1ccn2ncc(-c3cnn(C4CCCCC4O)c3)c2n1)c1cc(F)ccc1O` (centres unmarked) [Compound a3-4, 4-fluoro-2-(1-((3-(1-(2-hydroxycyclohexyl)-1H-pyrazol-4-yl)pyrazolo [1,5-a]pyrimidin-5-yl)amino)ethyl) phenol], the IC50 was found to be 24.2 nM.

As for `CC(Nc1ccn2ncc(-c3cnn(CCO)c3)c2n1)c1cc(F)ccc1OC(F)F` (centres unmarked) [Compound a5-9, 2-(4-(5-((1-(2-(difluoromethoxy)-5-fluorophenyl)ethyl)amino)pyrazolo [1,5-a]pyrimidin-3-yl)-1H-pyrazol-1-yl) ethan-1-ol], the half-inhibitory concentration (IC50) is 4 nM.

`CC(Nc1ccn2ncc(-c3cnn(C4CCOCC4)c3)c2n1)c1cc(F)ccc1OC(F)F` (centres unmarked) [Compound a6-10, N-(1-(2-(difluoromethoxy)-5-fluorophenyl)ethyl)-3-(1-(tetrahydro-2H-pyran-4-yl)-1H-pyrazol-4-yl) pyrazolo [1,5-a] pyrimidin-5-amine]: the IC50 was found to be 26.5 nM.

For `CCOc1ccc(F)cc1C(C)Nc1ccn2ncc(-c3cnn(C4CCOCC4)c3)c2n1` (centres unmarked) [Compound a7-12, N-(1-(2-ethoxy-5-fluorophenyl)ethyl)-3-(1-(tetrahydro-2H-pyran-4-yl)-1H-pyrazol-4-yl) pyrazolo [1,5-a] pyrimidin-5-amine], the IC50 was 23 nM.

`CC(Nc1ccn2ncc(-c3cnn(C(F)F)c3)c2n1)c1cc(F)ccc1OCCO` (centres unmarked) [Compound a8-13, 2-(2-(1-((3-(1-(difluoromethyl)-1H-pyrazol-4-yl)pyrazolo [1,5-a]pyrimidin-5-yl)amino)ethyl)-4-fluorophenoxy) ethanol]: the IC50 is 40.9 nM.

In the case of `COCCOc1ccc(F)cc1C(C)Nc1ccn2ncc(-c3cnn(C4CCOCC4)c3)c2n1` (centres unmarked) [Compound a9-14, N-(1-(5-fluoro-2-(2-methoxyethoxy)phenyl)ethyl)-3-(1-(tetrahydro-2H-pyran-4-yl)-1H-pyrazol-4-yl) pyrazolo [1,5-a] pyrimidin-5-amine], the IC50 was found to be 67.8 nM.

`C[C@@H](Nc1ccn2ncc(-c3cnn(CC#N)c3)c2n1)c1cc(F)ccc1OCCF` [Compound a12-19, (R)-2-(4-(5-((1-(5-fluoro-2-(2-fluoroethoxy)phenyl)ethyl)amino)pyrazolo [1,5-a]pyrimidin-3-yl)-1H-pyrazol-1-yl) acetonitrile]: the IC50 was 3.3 nM.

`CC(Nc1ccn2ncc(-c3cnn(C(C)C)c3)c2n1)c1cc(F)ccc1OCCF` (centres unmarked) [Compound a13-20, N-(1-(5-fluoro-2-(2-fluoroethoxy)phenyl)ethyl)-3-(1-isopropyl-1H-pyrazol-4-yl) pyrazolo [1,5-a] pyrimidin-5-amine]: the IC50 stood at 20.2 nM.

As for `CC(Nc1ccn2ncc(-c3cnn(C4CC4)c3)c2n1)c1cc(F)ccc1OCCF` (centres unmarked) [Compound a14-21, 3-(1-cyclopropyl-1H-pyrazol-4-yl)-N-(1-(5-fluoro-2-(2-fluoroethoxy)phenyl)ethyl) pyrazolo [1,5-a] pyrimidin-5-amine], the concentration for half-maximal inhibition (IC50) is 12 nM.

On to `CC(Nc1ccn2ncc(-c3cnn(CCO)c3)c2n1)c1cc(F)ccc1OCCF` (centres unmarked) [Compound a15-22, 2-(4-(5-((1-(5-fluoro-2-(2-fluoroethoxy)phenyl)ethyl)amino)pyrazolo [1,5-a]pyrimidin-3-yl)-1H-pyrazol-1-yl) ethanol], for which the IC50 is 7.9 nM.

Turning to `CC(Nc1ccn2ncc(-c3cnn(CC(F)F)c3)c2n1)c1cc(F)ccc1OCCF` (centres unmarked) [Compound a16-23, 3-(1-(2,2-difluoroethyl)-1H-pyrazol-4-yl)-N-(1-(5-fluoro-2-(2-fluoroethoxy)phenyl)ethyl) pyrazolo [1,5-a] pyrimidin-5-amine], the 50% inhibitory concentration (IC50) was 9 nM.

Consider `CC(Nc1ccn2ncc(-c3cnn(C4CCCC4O)c3)c2n1)c1cc(F)ccc1OCCF` (centres unmarked) [Compound a17-24, 2-(4-(5-((1-(5-fluoro-2-(2-fluoroethoxy)phenyl)ethyl)amino)pyrazolo [1,5-a]pyrimidin-3-yl)-1H-pyrazol-1-yl) cyclopentan-1-ol], for which the IC50 was 7.6 nM.

On to `CC(Nc1ccn2ncc(-c3cnn(C4CCCCC4O)c3)c2n1)c1cc(F)ccc1OCCF` (centres unmarked) [Compound a18-25, 2-(4-(5-((1-(5-fluoro-2-(2-fluoroethoxy)phenyl)ethyl)amino)pyrazolo [1,5-a]pyrimidin-3-yl)-1H-pyrazol-1-yl) cyclohexan-1-ol], for which the IC50 is 9 nM.

Take `CC(Nc1ccn2ncc(-c3cnn(C4CCOCC4)c3)c2n1)c1cc(F)ccc1OCCF` (centres unmarked) [Compound a19-26, N-(1-(5-fluoro-2-(2-fluoroethoxy)phenyl)ethyl)-3-(1-(tetrahydro-2H-pyran-4-yl)-1H-pyrazol-4-yl) pyrazolo [1,5-a] pyrimidin-5-amine]: the IC50 amounted to 15.8 nM.

Take `C[C@@H](Nc1ccn2ncc(-c3cnn(C4CCCCO4)c3)c2n1)c1cc(F)ccc1OCCF` (stereo partly drawn) [Compound a20-27, N-((R)-1-(5-fluoro-2-(2-fluoroethoxy)phenyl)ethyl)-3-(1-(tetrahydro-2H-pyran-2-yl)-1H-pyrazol-4-yl) pyrazolo [1,5-a] pyrimidin-5-amine]: the IC50 amounted to 2.8 nM.

Take `CC(=O)n1cc(-c2cnn3ccc(NC(C)c4cc(F)ccc4OCCF)nc23)cn1` (centres unmarked) [Compound a21-28, 1-(4-(5-((1-(5-fluoro-2-(2-fluoroethoxy)phenyl)ethyl)amino)pyrazolo [1,5-a]pyrimidin-3-yl)-1H-pyrazol-1-yl) ethanone]: the IC50 was 5.3 nM.

With `CC(Nc1ccn2ncc(-c3cnn(S(C)(=O)=O)c3)c2n1)c1cc(F)ccc1OCCF` (centres unmarked) [Compound a22-29, N-(1-(5-fluoro-2-(2-fluoroethoxy)phenyl)ethyl)-3-(1-(methylsulfonyl)-1H-pyrazol-4-yl) pyrazolo [1,5-a] pyrimidin-5-amine], the IC50 was found to be 14.6 nM.

Turning to `CC(Nc1ccn2ncc(-c3cnn(C4CCOCC4)c3)c2n1)c1cc(F)ccc1OCCCF` (centres unmarked) [Compound a25-35, N-(1-(5-fluoro-2-(3-fluoropropoxy)phenyl)ethyl)-3-(1-(tetrahydro-2H-pyran-4-yl)-1H-pyrazol-4-yl) pyrazolo [1,5-a] pyrimidin-5-amine], the IC50 stood at 24.8 nM.

Take `CC(Nc1ccn2ncc(-c3cnn(C)c3)c2n1)c1cc(F)ccc1OCC1CCOCC1` (centres unmarked) [Compound a28-43, N-(1-(5-fluoro-2-((tetrahydro-2H-pyran-4-yl)methoxy)phenyl)ethyl)-3-(1-methyl-1H-pyrazol-4-yl) pyrazolo [1,5-a] pyrimidin-5-amine]: the IC50 stood at 110 nM.

With `CC(Nc1ccn2ncc(-c3cn[nH]c3)c2n1)c1cc(F)ccc1O` (centres unmarked) [Compound b1-1, 2-(1-((3-(1H-pyrazol-4-yl)pyrazolo [1,5-a]pyrimidin-5-yl)amino)ethyl)-4-fluorophenol], the IC50 is 9.5 nM.

For `COc1ccc(F)cc1C(C)Nc1ccn2ncc(-c3cn[nH]c3)c2n1` (centres unmarked) [Compound b2-5, N-(1-(5-fluoro-2-methoxyphenyl)ethyl)-3-(1H-pyrazol-4-yl) pyrazolo [1,5-a]pyrimidin-5-amine], the IC50 stood at 15.2 nM.

As for `COCCOc1ccc(F)cc1C(C)Nc1ccn2ncc(-c3cn[nH]c3)c2n1` (centres unmarked) [Compound b6-15, N-(1-(5-fluoro-2-(2-methoxyethoxy)phenyl)ethyl)-3-(1H-pyrazol-4-yl) pyrazolo [1,5-a] pyrimidin-5-amine], the IC50 is 24 nM.

With `CC(Nc1ccn2ncc(-c3cn[nH]c3)c2n1)c1cc(F)ccc1OCC1CC1` (centres unmarked) [Compound b12-37, N-(1-(2-(cyclopropylmethoxy)-5-fluorophenyl)ethyl)-3-(1H-pyrazol-4-yl) pyrazolo [1,5-a] pyrimidin-5-amine], the IC50 came out at 4.2 nM.

For the compound `CC(Nc1ccn2ncc(-c3cn[nH]c3)c2n1)c1cc(F)ccc1OCC1CCOCC1` (centres unmarked) [Compound b15-42, N-(1-(5-fluoro-2-((tetrahydro-2H-pyran-4-yl)methoxy)phenyl)ethyl)-3-(1H-pyrazol-4-yl) pyrazolo [1,5-a] pyrimidin-5-amine], the IC50 is 55 nM.
